Measured values taken from patent US11072627B2, “Uridine diphosphate derivatives, compositions and methods for treating neurodegenerative disorders” (Tufts University, priority 2011, dated 2021).
Entries after “also recorded” stand apart in the source; their conditions may differ. Like-named read-outs stand apart in the source and are kept apart here. One block for each molecule: values may come before it.

Legend:
P2Y6 receptor [1] = target: T1, P2Y6 receptor (Homo sapiens, UniProt Q15077); test: Activation of P2Y6 receptor, receptor induced Ca2+ changes with fluo-4; format: cell-based; parameters: expressed in transfected cells; host or cells: 1321N1 human astrocytoma cells
T1 sequence (Q15077 whole entry): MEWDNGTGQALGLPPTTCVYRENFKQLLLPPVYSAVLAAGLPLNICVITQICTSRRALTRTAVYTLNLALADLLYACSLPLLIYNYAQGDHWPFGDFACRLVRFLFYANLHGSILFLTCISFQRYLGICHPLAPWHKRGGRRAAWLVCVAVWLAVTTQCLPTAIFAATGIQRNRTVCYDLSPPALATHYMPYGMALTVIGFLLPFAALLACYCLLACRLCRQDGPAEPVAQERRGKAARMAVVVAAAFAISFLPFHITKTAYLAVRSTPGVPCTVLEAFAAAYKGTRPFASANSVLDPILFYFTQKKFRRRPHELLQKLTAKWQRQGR
Experimental: (§1) Synthetic ligands were tested for activation of P2Y6 receptor by measuring receptor induced Ca^2+ changes with the fluorescent Ca^2+ indicator fluo-4. 1321N1 human astrocytoma cell lines either expressing P2Y2, P2Y4 or P2Y6 receptors were plated into 24-well plates. Two days after plating, fluorometric measurements were made and responses of cells to a serial dilution of ligands were determined. P2Y6 mediated Ca^2+ fluorescent change was determined by normalized accumulation of fluorescent change of 3 timepoints after ligand administration subtracted by value from ACSF control. Changes in fluorescent intensity were plotted corresponding to ligand concention in GraphPad. Dose-response curve and EC50 for each ligand was estimated using nonlinear curve fit and Sigmoidal dose-response analysis. […] The ability of the sodium salt of compound 5 to elevate Ca^2+ signals in P2Y6 expressing cells was attenuated by addition of the P2Y6 antagonist MRS2578.
as §1, with “fluo-4, and results are shown in FIG. 10(A)-(K).” for “fluo-4.”

PSAPP mice [2] = test: Contextual fear conditioning test; format: in vivo, mouse
From the text: (§2) Heterozygous mutant (K670N/M671L) APP (50% C57B6, 50% SJL) transgenic mice were crossed with heterozygous mutant (A246E) PS-1 (50% C57B6, 50% SJL) transgenic mice to generate heterozygous PSAPP transgenic mice (also referred to as PS-1/APP or PSAPP+/+ mice), which refers to animals heterozygous for the PS-1 A246E transgene and the APP K670N/M671L transgene. Non-transgenic control animals were littermates (also referred to as PSAPP_−/− mice) generated in the breeding for PSAPP transgenic animals. Mouse genotype was determined by Polymerase Chain Reaction (PCR). Both male and female mice of 6-7 months old were used for the experiments below. All animal experiments were performed in accordance with the Tufts Animal Care and Use Committee and with national regulations and policies.
On day one, animals were trained in a fear conditioning apparatus for a total of 7 minutes with a two-pairing paradigm of cue and mild foot shock (a 30-s acoustic-conditioned stimulus, 80 dB; a 2-s shock stimulus, 0.5 mA). To evaluate contextual fear learning, the animals were returned to the training context 24 hours post-training, and freezing behavior was scored for 5 minutes. Freezing behavior was monitored by MotorMonitor (Hamilton Kinder) and scored every 5 seconds.
In this study, the fear conditioning associative learning paradigm was used as a rapid cognition assay for PSAPP mice. This study allowed us to probe cognitive function with a single training day followed in 24 hours by tests for contextual and cued fear learning. Contextual fear learning is dependent upon a brain area that has been implicated as a locus for cognitive decline in AD: the hippocampus. Two pairings of CS-US for fear conditioning were followed 24 hours later by testing for contextual and cued fear learning. Previous studies have reported that PSAPP animals appear to have a selective hippocampus-dependent impairment in associative learning following two pairings of conditioned stimuli for fear conditioning.
This represents a decrease in the cognitive impairment observed in the untreated mice.

P2Y6 receptor [3] = target: T1, P2Y6 receptor; details: cited from earlier work
PSAPP mice [4] = test: Postmortem immunohistochemistry of plaque load in cortex and hippocampus; format: in vivo, mouse; details: for immunoreactivity of β1-40 (plaque load): i.p. for 4 and 6 consecutive days
From the text: as §2
Mice were perfused transcardially with 4% paraformaldehyde and 40 μm Coronal sections were collected. Sections were sequentially incubated in 0.3% H2O2 for 10 minutes, blocking solution for 2 hrs, blocking solution containing the primary antibody (rabbit anti-beta1-42; rabbit anti-beta1-40, from Chemicon International and rat anti-CD45) for 48 hours at 4° C., and blocking solution containing biotinylated antibody or fluorescently-labeled antibody for 2 hours at room temperature. Sections were visualized in a bright field microscope or a confocal microscope, and the optical density was obtained using MetaMorph software.
After repeated imaging, brains were fixed and subjected to postmortem immunohistochemistry with amyloid beta specific antibodies β1-40 and β1-42 to evaluate the plaque load (area occupied by immunostaining of plaque) in cortex and hippocampus.
PSB0474 was systemically administered to PSAPP mice via intraperitoneal injection for 2, 4 and 6 consecutive days. In one group, prior to evaluation and following to administration for 6 consecutive days, treatment was suspended for two weeks (6+2 weeks group). Brains were then fixed and plaque load was evaluated by immunostaining with the amyloid beta specific antibodies: β1-40 and β1-42. Representative images of plaque load in cortex and hippocampus from animals that received injections of PSB0474 according to the foregoing injection schedules are shown in FIG. 5(A)-(D). […] Whereas, when administration of PSB0474 was stopped for 2 weeks following six consecutive days of treatment (denoted as the 6+2 weeks group), β1-40 staining rebounded; although to a level lower than observed in mice treated with saline as a vehicle control. […]
To generate these graphs showing plaque load, mice were euthanized, brain sections cut and antibodies directed against Aβ 42 were used to disclose Aβ plaques. […] The algorithm then calculated the percent area of the field of view occupied by the plaques.

PSAPP mice [5] = test: Tolerability of increased dose of PSB0474; format: in vivo, mouse; details: 1000× increase in dose
PSAPP mice [6] = test: Postmortem immunohistochemistry of plaque load in cortex and hippocampus; format: in vivo, mouse; details: for decrease in plaque load: acute i.c.v. UDP
PSAPP mice [7] = test: Hippocampal long-term potentiation (LTP) recording; format: in vivo, mouse
Experimental: Hippocampal slices ([…] thick) were prepared from 6-month-old PSAPP mice. Baseline responses were obtained every 10 seconds and Input-output (I/O) curves, paired-pulse modification and LTP were successively measured. The stimulation intensity was set to a level that gives a value of 30% of the maximum obtained. LTP were induced by high frequency stimulation (HFS, 100 pulses at 100 Hz, four times) or by theta-burst stimulation (TBS, 10 bursts at 5 Hz, repeated 10 times in 15 s intervals).
Accumulated evidence has shown that amyloid peptides naturally secreted or isolated from Alzheimer's brains impair synaptic plasticity, especially hippocampal long-term potentiation (Walsh et al., 2002). Therefore, we further performed LTP recordings in PASPP mice and investigated whether P2Y6 receptor-mediated plaque clearance affects synaptic plasticity. […] First, it was observed that LTP at the schaffer collateral synapse within the CA1 region was depressed in PSAPP mice, as compared with littermates (FIG. 8(A)).

PSAPP mice [8] = test: Soluble Abeta level detected with ELISA; format: in vivo, mouse; details: UDP treatment
PSAPP mice [9] = test: Two-photon in vivo imaging of amyloid plaques in barrel cortex; parameters: species or system mouse
From the text: as §2
In this study, PSAPP mice were anesthetized using isoflurane and a thin-skull preparation was used to minimize the surface damage. Amyloid plaques were visualized with methoxyX04 labeling and blood plasma was labeled with Rhodamine dextran to facilitate re-localization of the same imaging area. Stack images were obtained using a two-photon system (Prairie Technologies) with excitation at 850 nm. The emission was detected by external photomultiplier tubes (525/70; DLCP 575; 607/45 nm).
Animals were anesthetized and immobilized in a stereotaxic frame. For each injection, 1 μl of 10 mM UDP or other suitable compounds in artificial cerebrospinal fluid (ACSF) as the vehicle were injected intraventricularly using the following coordinates: AP 0.2 mm, ML 1 mm, and DV 2.2 mm.
To evaluate the effect of UDP on plaque burden, two-photon microscopy was used to assess the amyloid plaques in the barrel cortex in living PSAPP mice. Amyloid plaques were stained by systemically administered methoxy-X04. One day prior to imaging, PSAPP mice were injected with methoxyX04 to label the amyloid plaques. On the imaging day, to facilitate the re-location of the same imaging area, blood plasma was labeled with Rhodamine dextran. Images were obtained from the same start- and end-point to ensure the same image volume.
The results were shown in a maximum intensity projection of a fluorescent stack containing 45 planes. Immediately after imaging, animals were injected with ACSF or UDP intracerebroventricularly (i.c.v.) and allowed to recover. On day 4, animals were subjected to a second period of imaging of the same regions studied on day 1 and the results are shown in FIG. 1(D)-(F). The similar pattern of angiopathy (shown by open arrows) indicated the same imaging area.

P2Y2 receptor = target: T2, P2Y2 receptor (Homo sapiens, UniProt P41231); test: Ca2+ mobilizing effect in 1321N1 cells expressing P2Y2 (fluo-4); format: cell-based; details: sodium salt; 1321N1 human astrocytoma cells expressing P2Y2
T2 construct: expressed in transfected cells; host or cells: 1321N1 human astrocytoma cells
T2 sequence (P41231 whole entry): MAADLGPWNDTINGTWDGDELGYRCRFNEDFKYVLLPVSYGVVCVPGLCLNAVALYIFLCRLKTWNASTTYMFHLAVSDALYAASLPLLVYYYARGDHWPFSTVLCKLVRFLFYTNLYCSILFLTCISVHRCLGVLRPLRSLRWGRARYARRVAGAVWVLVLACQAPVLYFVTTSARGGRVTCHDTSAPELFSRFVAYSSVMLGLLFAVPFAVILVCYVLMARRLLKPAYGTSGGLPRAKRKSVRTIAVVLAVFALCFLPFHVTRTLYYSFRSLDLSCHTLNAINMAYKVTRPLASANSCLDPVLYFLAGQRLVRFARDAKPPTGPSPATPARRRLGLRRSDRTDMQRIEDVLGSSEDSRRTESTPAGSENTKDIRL
Experimental: (§3) Synthetic ligands were tested for activation of P2Y6 receptor by measuring receptor induced Ca^2+ changes with the fluorescent Ca^2+ indicator fluo-4. 1321N1 human astrocytoma cell lines either expressing P2Y2, P2Y4 or P2Y6 receptors were plated into 24-well plates. Two days after plating, fluorometric measurements were made and responses of cells to a serial dilution of ligands were determined. P2Y6 mediated Ca^2+ fluorescent change was determined by normalized accumulation of fluorescent change of 3 timepoints after ligand administration subtracted by value from ACSF control. Changes in fluorescent intensity were plotted corresponding to ligand concention in GraphPad. Dose-response curve and EC50 for each ligand was estimated using nonlinear curve fit and Sigmoidal dose-response analysis. […]
(§4) Synthetic ligands were tested for activation of P2Y6 receptor by measuring receptor induced Ca^2+ changes with the fluorescent Ca^2+ indicator fluo-4, and results are shown in FIG. 10(A)-(K). […] Two days after plating, fluorometric measurements were made and responses of cells to a serial dilution of ligands were determined. P2Y6 mediated Ca^2+ fluorescent change was determined by normalized accumulation of fluorescent change of 3 timepoints after ligand administration subtracted by value from ACSF control. […]

P2Y4 receptor = target: T3, P2Y4 receptor (Homo sapiens, UniProt P51582); test: Ca2+ mobilizing effect in 1321N1 cells expressing P2Y4 (fluo-4); format: cell-based; details: sodium salt; 1321N1 human astrocytoma cells expressing P2Y4
T3 construct: expressed in transfected cells; host or cells: 1321N1 human astrocytoma cells
T3 sequence (P51582 whole entry): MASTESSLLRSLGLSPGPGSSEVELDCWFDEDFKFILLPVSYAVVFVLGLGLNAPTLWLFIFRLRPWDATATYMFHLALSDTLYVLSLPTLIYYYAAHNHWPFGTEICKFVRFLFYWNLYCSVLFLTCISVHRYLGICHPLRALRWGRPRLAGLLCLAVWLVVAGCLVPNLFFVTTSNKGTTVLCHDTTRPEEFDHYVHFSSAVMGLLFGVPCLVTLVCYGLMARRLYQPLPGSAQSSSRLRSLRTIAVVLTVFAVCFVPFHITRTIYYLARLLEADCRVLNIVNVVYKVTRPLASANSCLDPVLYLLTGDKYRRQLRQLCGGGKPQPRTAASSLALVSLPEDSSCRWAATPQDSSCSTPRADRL
Experimental: as §3, §4

[10] = acute i.c.v. UDP, barrel cortex, day 4 vs day 1, P<0.01

Structure (SMILES): S=C=Nc1cccc(NC(=S)NCCCCNC(=S)Nc2cccc(N=C=S)c2)c1 [MRS2578]
- effect of antagonist on ability of sodium salt of compound 5 to elevate Ca2+ signals (P2Y6 receptor [1]; P2Y6 expressing cells, MRS2578 added): attenuated

Structure (SMILES): O=C(Cn1c(=O)ccn([C@@H]2O[C@H](COP(=O)(O)OP(=O)(O)O)[C@@H](O)[C@H]2O)c1=O)c1ccccc1 [PSB0474, 3-phenacyl-UDP]
- memory deficit compared to vehicle treatment (PSAPP mice [2]; FIG. 9C, one week treatment with 1 ug/kg): rescued the memory deficit
- total freezing percentage in context test (PSAPP mice [2]; chronic injection of PSB0474, two different doses): increased
- EC50 (P2Y6 receptor [3]; P2Y6 receptor agonist): 0.07 µM
- selectivity for P2Y6 receptor (P2Y6 receptor [3]): > 500 fold
- β1-40 staining after stopping treatment (PSAPP mice [4]; 6 consecutive days i.p., then stopped for 2 weeks (6+2 weeks group), level lower than saline control): rebounded
- immunoreactivity of β1-40 (plaque load) (PSAPP mice [4]; cortex): significantly decreased
- effects on the efficacy endpoint at higher dose (PSAPP mice [4]; higher dose of 1 mg/kg, one week daily treatment): smaller effects
- immunoreactivity of β1-40 (plaque load) (PSAPP mice [4]; hippocampus): significantly decreased
- detrimental effects to the animal (PSAPP mice [5]): did not cause detrimental effects

Structure (SMILES): O=c1ccn([C@@H]2O[C@H](COP(=O)(O)OP(=O)(O)O)[C@@H](O)[C@H]2O)c(=O)[nH]1 [UDP, uridine diphosphate]
- freezing behavior compared to ACSF treatment (PSAPP mice [2]; FIG. 7C, UDP-treatment 3 days prior to the test): significantly improved
- freezing behavior during 5 minute-testing time (PSAPP mice [2]; UDP treatment, during the first 4 minutes, not the last minute): increased freezing behavior
- total freezing percentage (PSAPP mice [2]; acute UDP i.c.v., contextual test, ACSF control 18%±3%): 49%±5%
- decrease in plaque load (PSAPP mice [6]; cortex, β1-40 antibody, p<0.05): 60%
- decrease in plaque load (PSAPP mice [6]; cortex, β1-42 antibody, P<0.01): 48%
- decrease in plaque load (PSAPP mice [6]; hippocampus, β1-40 antibody, p<0.01): 62%
- decrease in plaque load (PSAPP mice [6]; hippocampus, β1-42 antibody, P<0.05): 47%
- field excitatory postsynaptic potential (fEPSP), last 15 min potentiation (PSAPP mice [7]; UDP treatment, comparable to level in littermates): significant increase
- LTP at schaffer collateral synapse, CA1 (PSAPP mice [7]; acute UDP treatment vs ACSF, HFS): reversed this LTP deficit
- soluble Aβ40 level (PSAPP mice [8]; FIG. 4E): decreased
- soluble Aβ42 level (PSAPP mice [8]; FIG. 4F): decreased
- day 4/day 1 ratios of plaque load (PSAPP mice [9]; FIG. 2D, UDP vs ACSF, barrel cortex): significant reductions
- day 4/day 1 ratios, number of plaques (PSAPP mice [9]; FIG. 2E, UDP vs ACSF, barrel cortex): significant reductions
- reduction in plaque load (PSAPP mice [9]; [10]): 17.2%
- reduction in the number of plaques (PSAPP mice [9]; [10]): 12.6%
- reduction in cross-sectional area of individual identified plaques (PSAPP mice [9]; acute i.c.v. UDP, second imaging session, P<0.01): 18.2%

- elevating Ca2+ levels in P2Y2 receptor expressing cells (P2Y2 receptor): not effective
- elevating Ca2+ levels in P2Y4 receptor expressing cells (P2Y4 receptor): not effective
- elevating Ca2+ levels in cells expressing P2Y6 receptors (P2Y6 receptor [1]; sodium salt, 1321N1 human astrocytoma cells expressing P2Y6): only effective
- EC50 (P2Y6 receptor [1]; sodium salt, 1321N1 human astrocytoma cells expressing P2Y6, fluo-4 Ca2+): 0.012 µM
Structure (SMILES): O=c1ccn([C@@H]2O[C@H](COP(=O)(O)OP(=O)(O)O)[C@H](O)C2O)c(=O)n1Cc1noc2ccccc12 (stereo partly shown) [compound 5]
- freezing behavior compared to the control treatment (PSAPP mice [2]; FIG. 11, compound 5 prior to the test): significantly improved; also recorded: restored to a level equivalent to that observed in wildtype animals
- total freezing percentage in the context test (PSAPP mice [2]; compound 5 i.p. daily for 7 consecutive days, 1 ug/kg or 1 mg/kg): increased
- Aβ plaque load (%) in the cortex vs vehicle control (PSAPP mice [6]; FIG. 12A, β1-42 antibody, compound 5 i.p. 7 days): substantial decrease
- Aβ plaque load (%) in the hippocampus vs vehicle control (PSAPP mice [6]; FIG. 12B, β1-42 antibody, compound 5 i.p. 7 days): substantial decrease
